Source: US8981066B2, “Epigenetic mechanisms related to DNA damage and aging” (Buck Institute for Research on Aging, priority 2011, dated 2015)

Key:
[1] = test system: meK172meK180 methylated form of H1.0 in hADSC cells; assay: H1.0 meK172meK180 methylation and localisation in hADSCs upon bleomycin genotoxic stress (immunostaining, Western blot); type: cell-based, human; settings: for nuclear meK172meK180 H1 methylation (initial DNA damage response): hADSC, bleomycin 50 μg/ml
Procedure: FIGS. 4A-4C illustrate the dynamics of the meK172meK180 methylation of hi stone H1.0 upon genotoxic stress-induced senescence of human adult stem (hADSC). FIG. 4A: Cells we treated with 50 μg/ml bleomycin for 3 hrs. Drug was replaced with normal DMEM12 media and cells were assessed for ^meK172^meK180 histone H1 methylation and DNA damage γH2AX at different time points (panels A, B, and C) by immunohistochemistry. Cellular senescence was estimated by senescence-associated β-Gal activity (phase-contrast). […] 1, 2, 3—represent samples of three independent hADSCs cultures used in western blot and qPCR experiments.
Cellular senescence is believed to be associated with accumulation of persistent DNA damage and activation of DNA damage response (DDR) pathways. In the DDR pathway, some chromatin modifications seem to play a critical role in marking lesions or recruiting factors involved in repair, thus facilitating the function of repair proteins. The best characterized in this context are histone H2AX and H1 phosphorylation events.

H1.0 gene = H1.0 gene expression in hADSCs (qPCR); type: cell-based, human; settings: bleomycin-treated hADSCs
Procedure: FIGS. 4A-4C illustrate the dynamics of the meK172meK180 methylation of hi stone H1.0 upon genotoxic stress-induced senescence of human adult stem (hADSC). FIG. 4A: Cells we treated with 50 μg/ml bleomycin for 3 hrs. Drug was replaced with normal DMEM12 media and cells were assessed for ^meK172^meK180 histone H1 methylation and DNA damage γH2AX at different time points (panels A, B, and C) by immunohistochemistry. Cellular senescence was estimated by senescence-associated β-Gal activity (phase-contrast). FIGS. 4B and 4C show the results of Western blots using H1.0 methyl antibodies in crude cellular extracts from human ADSCs treated with Rapamycin (FIG. 4B) or rampamyucin and bleomycin (FIG. 4C). […] However, acute DDR results in transcriptional up regulation of H1.0 gene expression that could be influenced by TOR pathway suppression. 1, 2, 3—represent samples of three independent hADSCs cultures used in western blot and qPCR experiments.
Cellular senescence is believed to be associated with accumulation of persistent DNA damage (Sedelnikova et al. (2008) Aging Cell 7: 89-100; Rodier et al. (2009) Nat. Cell Biol., 11: 973-979) and activation of DNA damage response (DDR) pathways (Wang et al. (2011) Cell Cycle 10: 3016-3030; Sedelnikova et al. (2004) Nat. Cell Biol., 6: 168-170; Herbig et al. (2004) Molecular Cell, 14: 501-513; d'Adda et al. (2003) Nature 426: 194-198). […]

bleomycin
localisation of met H1.0 upon genotoxic-stress induced senescence ([1]; bleomycin-treated hADSCs): eviction of met H1.0 into the cytoplasm | nuclear meK172meK180 H1 methylation (initial DNA damage response) [1]: triggers | nuclear meK172meK180 H1 methylation (initial DNA damage response) ([1]; listed as bleomycine): rapid and robust nuclear H1.0 methylation | H1.0 transcription upon acute DNA damage (H1.0 gene): drastic increase
